Measured values published in patent US4816459A, “Tetrazolyl-substituted pyrido[1,2-a]pyrimidines and use as SRS-A antagonists” (Tokyo Tanabe Co. Ltd., priority 1985, dated 1989).
Converted amounts (≈) assume the structure as drawn. Counter-ions that a name gives are not always drawn.

What was measured:
leukotriene D4 = test: Antagonistic effect on leukotriene D4 in excised guinea pig terminal ileum (in vitro, inhibition of contraction); type: cell-based, guinea pig (male, Hartley strain); settings: Cavia porcellus, leukotriene D4 0.3 ng/ml, 50% inhibition of contraction
Method: Specifically, the terminal ileum was suspended, under aerated conditions, in 10 ml of Tyrode's solution containing 5×10^-7 M atropine and 1×10^-6 M mepyramine. Then, a test compound and leukotriene D4 (manufactured by Wako Junyaku Co., Ltd.) were successively added thereto with an interval of 30 seconds.
Specifically, at varying concentrations of each test compound, the percent inhibition of contraction was calculated from the measured degree of contraction of the ileum according to the following equation: [formula] On the basis of the data thus obtained, a dose-response curve was prepared and used to determine the IC50 value of the test compound.

[1] = test system: leukotriene D4-induced airway constriction reaction; test: Inhibition of leukotriene D4-induced Type I allergic reaction (airway constriction), Konzett-Rossler procedure, intravenous injection; type: in vivo, guinea pig (male, Hartley strain); settings: Cavia porcellus, 2 min, leukotriene D4 0.5 μg/kg i.v. 2 minutes later, 50% inhibition of airway constriction, read-out: Inhibitory effect on Type I allergic reaction ID50 (intravenous)
Method: (§1) Using male guinea pigs of the Hartley strain, weighing about 400 g, in groups of six, the inhibitory effect of the present compounds [I] and physiologically acceptable salts thereof on a Type I allergic reaction induced by leukotriene D4 was tested in two dosage forms (i.e., by intravenous injection and by oral administration) according to the Konzett-Rossler procedure [Naunyn-Schmiederbergs Archiv fur Experimentelle Pathologie und Pharmakologie, Vol. 195, p. 71, 1940]. Specifically, each guinea pig was anesthetized by intraperitoneal administration of 1.5 g/kg of urethane and an incision was made in the neck to expose the trachea. To the exposed trachea was connected a respirator (with a ventilation volume of 5-7 ml, a respiration rate of 70 per minute, and a pulmonary load pressure of 10 cmH2 O; manufactured by Ugo Basile Biological Research Apparatus Co.) by way of a cannula. The volume of air overflowing through the branch of the cannula was measured by means of a Model 7020 Bronchospasm Transducer (manufactured by Ugo Basile Biological Research Apparatus Co.) and recorded with a Model RM-6000 Polygraph (manufactured by Nippon Koden Co., Ltd.).
Intravenous injection tests were carried out as follows: Each guinea pig was treated by intravenous injection of 1 mg/kg of gallamine triethiodide. Then, 20.0 to 6000.0 μg/kg of a test compound and 0.5 μg/kg of leukotriene D4 were successively administered thereto through the cervical vein with an interval of 2 minutes. The volume of air overflowing as a result of the induced airway constriction reaction was measured. The test compound was used in the form of a solution in physiological saline containing sodium hydrogen carbonate or potassium carbonate.
(§2) Both in the intravenous injection tests and in the oral administration tests, leukotriene D4 was used in the form of a solution in physiological saline.
(§3) Both in the intravenous injection tests and in the oral administration tests, the pharmacological effect on the Type I allergic reaction was evaluated in terms of the dose of the test compound at which the airway constriction reaction induced by leukotriene D4 was inhibited by 50% (hereinafter referred to as ID50), provided that ID50 was expressed in μg/kg for the intravenous injection tests and in mg/kg for the oral administration tests. […] On the basis of the data thus obtained, a dose-response curve was prepared and used to determine the ID50 value of the test compound.
(§4) Among the test compounds indicated, the compounds of Examples 1, 6 and 9 used in the intravenous injection tests were prepared according to procedure a described in the respective examples, and those used in the oral administration tests were prepared according to procedure b.

[2] = test system: leukotriene D4-induced airway constriction reaction; test: Inhibition of leukotriene D4-induced Type I allergic reaction (airway constriction), Konzett-Rossler procedure, oral administration; type: in vivo, guinea pig (male, Hartley strain); settings: Cavia porcellus; oral 90 minutes before anesthesia; leukotriene D4 0.5 μg/kg i.v.; 50% inhibition of airway constriction; read-out: Inhibitory effect on Type I allergic reaction ID50 (oral)
Method: as §1
Oral administration tests were carried out as follows: 1 to 30 mg/kg of a test compound was orally administered to each guinea pig 90 minutes before anesthesia with urethane. Then, the anesthetized guinea pig was treated by intravenous injection of 1 mg/kg of gallamine triethiodide and administration of 0.5 μg/kg of leukotriene D4 through the cervical vein. The volume of air overflowing as a result of the induced airway constriction reaction was measured.
as §2, §3, §4

[3] = Acute toxicity (LD50) in mice; settings: mouse, in vivo, 5-weeks-old male ddY strain mice
Method: (§5) The acute toxicity (LD50) of several typical examples of the present compounds [I] and physiologically acceptable salts thereof was tested on 5-weeks-old male ddY strain mice and male SD strain rats. For this purpose, the compounds of Examples 1, 6 and 9 were selected as typical examples. […] For rats, their LD50 values were not less than 4.0 g/kg when administered orally, and not less than 200 mg/kg when administered intravenously.

[4] = Acute toxicity (LD50) in rats; settings: rat, in vivo, male SD strain rats
Method: as §5

[5] = test system: SRS-A as represented by leukotriene D4; test: Confirmatory experiment: antagonistic effect on SRS-A as represented by leukotriene D4; settings: confirmatory experiment by the inventors
SRS-A = settings: Japanese Journal of Allergology 1984; cited from earlier work
[6] = intravenous, read-out: LD50, intravenous, mice
[7] = oral, read-out: LD50, oral, mice
[8] = intravenous, read-out: LD50, intravenous, rats
[9] = oral, read-out: LD50, oral, rats

Structure (SMILES)	IC50 (leukotriene D4) [µg/mL]	ED50 [1] [mg/kg]	ED50 [2] [mg/kg]	LD50 [3, 6] [mg/kg]	LD50 [3, 7] [mg/kg]	LD50 [4, 8] [mg/kg]	LD50 [4, 9] [mg/kg]	antagonistic effect on SRS-A as represented by leukotriene D4 (in words) [5]	type of SRS-A drug (in words) (SRS-A)
CCCc1c(OCc2cccn3c(=O)c(CCc4nnn[nH]4)cnc23)ccc(C(C)=O)c1O [Example 9, 9-[(4-acetyl-3-hydroxy-2-n-propylphenoxy)methyl]-3-[2-(1H-tetrazol-5-yl)ethyl]-4H-pyrido[1,2-a]pyrimidin-4-one]	0.005 (≈ 0.0111 µM)	0.038	5	≥ 100	≥ 4000	≥ 200	≥ 4000	–	–
CCCc1c(OCc2cc(Br)cn3c(=O)c(-c4nnn[nH]4)cnc23)ccc(C(C)=O)c1O [Example 4, 9-[(4-acetyl-3-hydroxy-2-n-propylphenoxy)methyl]-7-bromo-3-(1H-tetrazol-5-yl)-4H-pyrido[1,2-a]pyrimidin-4-one]	1 (≈ 2 µM)	4.9	–	–	–	–	–	–	–
CCCc1c(OCc2cc(Br)cn3c(=O)c(CCc4nnn[nH]4)cnc23)ccc(C(C)=O)c1O [Example 11, 9-[(4-acetyl-3-hydroxy-2-n-propylphenoxy)methyl]-7-bromo-3-[2-(1H-tetrazol-5yl)ethyl]-4H-pyrido[1,2-a]pyrimidin-4-one]	0.9 (≈ 1.71 µM)	2.9	–	–	–	–	–	–	–
CCCc1c(OCc2cc(C)cn3c(=O)c(-c4nnn[nH]4)cnc23)ccc(C(C)=O)c1O [Example 5, 9-[(4-acetyl-3-hydroxy-2-n-propylphenoxy)methyl]-7-methyl-3-(1H-tetrazol-5-yl)-4H-pyrido[1,2-a]pyrimidin-4-one]	0.8 (≈ 1.84 µM)	–	–	–	–	–	–	–	–
CCCc1c(OCc2ccc3ncc(Cc4nnn[nH]4)c(=O)n3c2)ccc(C(C)=O)c1O [Example 7, 7-[(4-acetyl-3-hydroxy-2-n-propylphenoxy)methyl]-3-[(1H-tetrazol-5-yl)methyl]-4H-pyrido[1,2-a]pyrimidin-4-one]	0.1 (≈ 0.23 µM)	–	–	–	–	–	–	–	–
CCCc1c(OCc2ccn3c(=O)c(CCc4nnn[nH]4)cnc3c2)ccc(C(C)=O)c1O [Example 10, 8-[(4-acetyl-3-hydroxy-2-n-propylphenoxy)methyl]-3-[2-(1H-tetrazol-5-yl)ethyl]-4H-pyrido[1,2-a]pyrimidin-4-one]	0.6 (≈ 1.34 µM)	–	–	–	–	–	–	–	–
CCCc1c(OCc2cccn3c(=O)c(Cc4nnn[nH]4)cnc23)ccc(C(C)=O)c1O [Example 6, 9-[(4-acetyl-3-hydroxy-2-n-propylphenoxy)methyl]-3-[(1H-tetrazol-5-yl)methyl]-4H-pyrido[1,2-a]pyrimidin-4-one]	0.01 (≈ 0.023 µM)	0.11	10	≥ 100	≥ 4000	≥ 200	≥ 4000	–	–
CCCc1c(OCc2cccn3c(=O)c(-c4nnn[nH]4)cnc23)ccc(C(C)=O)c1O [Example 1, 9-[(4-acetyl-3-hydroxy-2-n-propylphenoxy)methyl]-3-(1H-tetrazol-5-yl)-4H-pyrido[1,2-a]-pyrimidin-4-one]	0.03 (≈ 0.0714 µM)	0.097	9	≥ 100	≥ 4000	≥ 200	≥ 4000	–	–

The next lines start with results.

IC50 (leukotriene D4) [µg/mL]	Structure (SMILES)	ED50 [1] [mg/kg]	ED50 [2] [mg/kg]	LD50 [3, 6] [mg/kg]	LD50 [3, 7] [mg/kg]	LD50 [4, 8] [mg/kg]	LD50 [4, 9] [mg/kg]	antagonistic effect on SRS-A as represented by leukotriene D4 (in words) [5]	type of SRS-A drug (in words) (SRS-A)
0.2 (≈ 0.476 µM)	CCCc1c(OCc2ccn3c(=O)c(-c4nnn[nH]4)cnc3c2)ccc(C(C)=O)c1O [Example 3, 8-[(4-acetyl-3-hydroxy-2-n-propylphenoxy)methyl]-3-(1H-tetrazol-5-yl)-4H-pyrido[1,2-a]pyrimidin-4-one]	0.17	–	–	–	–	–	–	–
200	Cc1cccn2c(=O)c(-c3nnn[nH]3)cnc12.[K] [Compound TBX, 9-Methyl-3-(1H-tetrazol-5-yl)-4H-pyrido[1,2-a]pyrimidin-4-one potassium salt, reference compound]	≥ 10	–	–	–	–	–	no antagonistic effect	belongs to the SRS-A release suppression type
0.03	CCCc1c(OCc2cccn3c(=O)c(-c4nn[nH]n4)cnc23)ccc(C(C)=O)c1O [Example 12, 9-[(4-acetyl-3-hydroxy-2-n-propylphenoxy)methyl]-3-(1H-tetrazol-5-yl)-4H-pyrido[1,2-a]pyrimidin-4-one potassium salt]	0.097	10	–	–	–	–	–	–
0.1 (≈ 0.238 µM)	CCCc1c(OCc2ccc3ncc(-c4nnn[nH]4)c(=O)n3c2)ccc(C(C)=O)c1O [Example 2, 7-[(4-acetyl-3-hydroxy-2-n-propylphenoxy)methyl]-3-(1H-tetrazol-5-yl)-4H-pyrido[1,2-a]pyrimidin-4-one]	0.16	–	–	–	–	–	–	–
0.7 (≈ 1.56 µM)	CCCc1c(OCc2cc(C)cn3c(=O)c(Cc4nnn[nH]4)cnc23)ccc(C(C)=O)c1O [Example 8, 9-[(4-acetyl-3-hydroxy-2-n-propylphenoxy)methyl]-7-methyl-3-[(1H-tetrazol-5-yl)methyl]-4H-pyrido[1,2-a]pyrimidin-4-one]	1.9	–	–	–	–	–	–	–
